The results in this text go back to US10624897B2, “Chlorobenzene substituted azaaryl compounds” (TAIPEI MEDICAL UNIVERSITY, priority 2015, dated 2020).

Each structure is given as a SMILES string.

One data set has as its system RT-112 tumor xenografts. The following applies: 5 mg/kg/wk, i.p., nude mice.
For the next data set, the system named is RT-112. Description: MTT assay, cell viability. Format: cell-based. To be noted: 72 hours. Here is the method: (§1) Cells were cultured in RPMI-1640 (RT-112, KMS-11, SNU-16, HT-29, HCT-116, NCI—H520, Hep3B, PLC/PRF/5, HL-60, MOLT-4) and DMEM (HepG2, MCF-7, MDA-MB-231) with 10% FBS (v/v) and Penicillin/Streptomycin (100 U/ml). FU-DDLS-1 cell line was maintained in DMEM:F12 medium with 10% FBS. LiSa-2 cell line was maintained in IMDM/RPMI-1640 in a 4:1 ratio supplemented with 10% FBS, 2 mmol/L L-glutamine, and 0.1 mg/mL gentamicin. Human umbilical vein endothelial cells (HUVECs) were grown to confluence on 1% collagen, and maintained in 90% Medium 199 with 25 U/ml heparin, 30 μg/ml endothelial cell growth supplement (ECGS) adjusted to contain 1.5 g/L sodium bicarbonate, 10% FBS and Penicillin/Streptomycin (100 U/ml) Cultures were maintained at 37° C. in a humidified atmosphere of 5% CO2/95% air.
(§2) Cells were seeded in 96-well plates (5,000 cells/well) and incubated overnight for attachment, and were then treated with indicated agents in 10% FBS-supplemented medium for 72 hours. The medium was replaced with MTT (0.5 mg/mL) at 37° C. for 1 hours. After removal of medium, the cells were lysed with 100 μL per well dimethyl sulfoxide (DMSO), and absorbance at 550 nm was measured with microplate reader. The relative cell viability (%) was expressed as a percentage relative to a DMSO control cells.

The next data set relates to Hep3B. In words: MTT assay, cell viability. Format: cell-based. To be noted: 5 uM, 72 hours. The procedure:
as §1, §2

In a further data set the test system is SNU-16. In words: MTT assay, cell viability. The data set is classed as cell-based. The following applies: 72 hours. The procedure:
as §1, §2

A further data set concerns PLC/PRF/5. Description: MTT assay, cell viability. The data set is classed as cell-based. The following applies: PLC5, 5 uM, 72 hours. Here is the method:
as §1, §2

The next data set has as its system RT-112 cells. In words: Cell cycle distribution by flow cytometry. Format: cell-based. To be noted: 48 h to 72 h, FIG. 3A.

Method for RT-112 tumor xenografts: Eight-week-old female athymic nude mice were group-housed in the TMU Laboratory Animal Center (Taipei, Taiwan) under conditions of constant photoperiod (12 h light/12 h dark at 21-0023° C. and 60-85% humidity) with ad libitum access to sterilized food and water. […] Tumors were measured weekly using calipers. Tumor volume (mm3) was calculated from w2×½ (w=width, 1=length in mm of the tumor).

For the compound `N.N.[Cl][Pt][Cl]` [Cisplatin, reference compound], the “Tumor growth inhibition (%)” value with RT-112 tumor xenografts is recorded as 56.3%.
As for `CCN1CCN(c2ccc(Nc3cc(N(C)C(=O)Nc4c(Cl)c(OC)c(Cl)c(OC)c4Cl)ncn3)cc2)CC1` [MPT0L090, 1-(6-((4-(4-ethylpiperazin-1-yl)phenyl)amino)pyrimidin-4-yl)-1-methyl-3-(2,4,6-trichloro-3,5-dimethoxyphenyl)urea], in the data set on RT-112, the “Viability (% of control cells) RT-112 (5 uM) Mean” value is 52.6 % of control cells and the “Viability (% of control cells) RT-112 (10 uM) Mean” value is 12.7 % of control cells. The “Viability (% of control cells) Hep3B (5 uM) Mean” value in the data set with Hep3B is listed as 47.1 % of control cells. Besides, the “Viability (% of control cells) SNU-16 (5 uM) Mean” value in the data set with SNU-16 is 27.5 % of control cells. In the data set with PLC/PRF/5, the “Viability (% of control cells) PLC5 (5 uM) Mean” value was 72.6 % of control cells.
For `CCN1CCN(c2ccc(Nc3cc(N(C)C(=O)Nc4c(Cl)c(OC)c(Cl)c(OC)c4Cl)nc(-c4ccccc4)n3)cc2)CC1` [MPT0L146, 1-(6-((4-(4-ethylpiperazin-1-yl)phenyl)amino)-2-phenylpyrimidin-4-yl)-1-methyl-3-(2,4,6-trichloro-3,5-dimethoxyphenyl)urea], in that order: 100.8 % of control cells, 29.7 % of control cells, 94.3 % of control cells, 83.4 % of control cells and 88.0 % of control cells.
Regarding `COc1c(Cl)c(NC(=O)N(C)c2cc(-c3cccnc3)ncn2)c(Cl)c(OC)c1Cl` [MPT0L147, 1-methyl-1-(6-(pyridin-3-yl)pyrimidin-4-yl)-3-(2,4,6-trichloro-3,5-dimethoxyphenyl)urea], in the data set with RT-112, the “Viability (% of control cells) RT-112 (10 uM) Mean” value is given as 85.0 % of control cells.
Same read-out and setting: under `COc1c(Cl)c(NC(=O)N(C)c2cc(-c3ccncc3)ncn2)c(Cl)c(OC)c1Cl` [MPT0L148, 1-methyl-1-(6-(pyridin-4-yl)pyrimidin-4-yl)-3-(2,4,6-trichloro-3,5-dimethoxyphenyl)urea] stands 89.3 % of control cells.
The same measure, in the same setting: under `COc1c(Cl)c(NC(=O)N(C)c2cc(-c3ccccc3)ncn2)c(Cl)c(OC)c1Cl` [MPT0L149, 1-methyl-1-(6-phenylpyrimidin-4-yl)-3-(2,4,6-trichloro-3,5-dimethoxyphenyl)urea] stands 82.3 % of control cells.
On the same count and under the same terms, as for `COc1c(Cl)c(NC(=O)N(C)c2cc(-c3cccc(C#N)c3)ncn2)c(Cl)c(OC)c1Cl` [MPT0L150, 1-(6-(3-cyanophenyl)pyrimidin-4-yl)-1-methyl-3-(2,4,6-trichloro-3,5-dimethoxyphenyl)urea], the figure is 75.0 % of control cells; as for `COc1c(Cl)c(NC(=O)N(C)c2cc(-c3cccc([N+](=O)[O-])c3)ncn2)c(Cl)c(OC)c1Cl` [MPT0L151, 1-methyl-1-(6-(3-nitrophenyl)pyrimidin-4-yl)-3-(2,4,6-trichloro-3,5-dimethoxyphenyl)urea], 63.8 % of control cells; as for `COc1c(Cl)c(NC(=O)N(C)c2cc(-c3ccc(C#N)cc3)ncn2)c(Cl)c(OC)c1Cl` [MPT0L152, 1-(6-(4-cyanophenyl)pyrimidin-4-yl)-1-methyl-3-(2,4,6-trichloro-3,5-dimethoxyphenyl)urea], 55.3 % of control cells.
`COc1ccc(-c2cc(N(C)C(=O)Nc3c(Cl)c(OC)c(Cl)c(OC)c3Cl)ncn2)cc1` [MPT0L153, 1-(6-(4-methoxyphenyl)pyrimidin-4-yl)-1-methyl-3-(2,4,6-trichloro-3,5-dimethoxyphenyl)urea]: in the data set on RT-112, the “Viability (% of control cells) RT-112 (5 uM) Mean” value is given as 63.8 % of control cells and the “Viability (% of control cells) RT-112 (10 uM) Mean” value is 43.0 % of control cells. In the data set with Hep3B, the “Viability (% of control cells) Hep3B (5 uM) Mean” value is 93.6 % of control cells. For the same compound, in the data set with SNU-16, the “Viability (% of control cells) SNU-16 (5 uM) Mean” value is 76.2 % of control cells. Besides, the “Viability (% of control cells) PLC5 (5 uM) Mean” value in the data set on PLC/PRF/5 was 91.3 % of control cells.
Turning to `COc1c(Cl)c(NC(=O)N(C)c2cc(-c3ccco3)ncn2)c(Cl)c(OC)c1Cl` [MPT0L154, 1-(6-(furan-2-yl)pyrimidin-4-yl)-1-methyl-3-(2,4,6-trichloro-3,5-dimethoxyphenyl)urea], the “Viability (% of control cells) RT-112 (10 uM) Mean” value in the data set on RT-112 is reported as 76.1 % of control cells.
Consider `COc1c(Cl)c(NC(=O)N(C)c2cc(-c3ccc(F)cc3)ncn2)c(Cl)c(OC)c1Cl` [MPT0L155, 1-(6-(4-fluorophenyl)pyrimidin-4-yl)-1-methyl-3-(2,4,6-trichloro-3,5-dimethoxyphenyl)urea], for which, in the data set on RT-112, the “Viability (% of control cells) RT-112 (5 uM) Mean” value is 92.6 % of control cells and the “Viability (% of control cells) RT-112 (10 uM) Mean” value is reported as 44.4 % of control cells. The “Viability (% of control cells) Hep3B (5 uM) Mean” value in the data set with Hep3B is 72.8 % of control cells. Also, the “Viability (% of control cells) SNU-16 (5 uM) Mean” value in the data set with SNU-16 was 80.5 % of control cells. The “Viability (% of control cells) PLC5 (5 uM) Mean” value with PLC/PRF/5 was 55.3 % of control cells.
With `COc1c(Cl)c(NC(=O)N(C)c2cc(-c3ccc(Cl)cc3)ncn2)c(Cl)c(OC)c1Cl` [MPT0L156, 1-(6-(4-chlorophenyl)pyrimidin-4-yl)-1-methyl-3-(2,4,6-trichloro-3,5-dimethoxyphenyl)urea], in the data set with RT-112, the “Viability (% of control cells) RT-112 (5 uM) Mean” value is 98.3 % of control cells and the “Viability (% of control cells) RT-112 (10 uM) Mean” value was 34.8 % of control cells. For the same compound, the “Viability (% of control cells) Hep3B (5 uM) Mean” value in the data set on Hep3B is given as 54.3 % of control cells. Further, the “Viability (% of control cells) SNU-16 (5 uM) Mean” value in the data set on SNU-16 is on record as 76.7 % of control cells. In addition, the “Viability (% of control cells) PLC5 (5 uM) Mean” value with PLC/PRF/5 is recorded as 44.4 % of control cells.
The matching figures for `CCN1CCN(c2ccc(-c3cc(N(C)C(=O)Nc4c(Cl)c(OC)c(Cl)c(OC)c4Cl)ncn3)cc2)CC1` [MPT0L182, 1-(6-(4-(4-ethylpiperazin-1-yl)phenyl)pyrimidin-4-yl)-1-methyl-3-(2,4,6-trichloro-3,5-dimethoxyphenyl)urea]: 95.6 % of control cells, 8.6 % of control cells, 96.3 % of control cells, 63.2 % of control cells and 78.3 % of control cells.
The matching figures for `CCN1CCN(c2ccc(Nc3nc(Cl)nc(N(C)C(=O)Nc4c(Cl)c(OC)c(Cl)c(OC)c4Cl)n3)cc2)CC1` [MPT0L183, 1-(4-chloro-6-((4-(4-ethylpiperazin-1-yl)phenyl)amino)-1,3,5-triazin-2-yl)-1-methyl-3-(2,4,6-trichloro-3,5-dimethoxyphenyl)urea]: 15.8 % of control cells, 3.4 % of control cells, 43.3 % of control cells, 28.2 % of control cells and 45.0 % of control cells.
In the case of `CC(=O)O[C@H]1C(=O)[C@@]2(C)[C@H]([C@H](OC(=O)c3ccccc3)[C@]3(O)C[C@H](OC(=O)[C@H](O)[C@@H](NC(=O)c4ccccc4)c4ccccc4)C(C)=C1C3(C)C)[C@]1(OC(C)=O)CO[C@@H]1C[C@@H]2O` [paclitaxel], in the data set with RT-112 cells, the “accumulation of the sub-G1 phase (apoptotic cell death)” value was “induced pronounced apoptosis”.
